The test concerns the target acetylcholinesterase (Homo sapiens, UniProt P22303). Briefly: Cholinesterase Inhibition Assay (photometric method of Ellman et al.). The class given is biochemical.
The mark [1] stands for this setting: photometric method of Ellman et al., read-out: Cholinesterase Inhibition IC50.

Each structure is given as a SMILES string. Read-outs that look alike come from different tables or passages of the source.

acetylcholinesterase, sequence (P22303 32-614): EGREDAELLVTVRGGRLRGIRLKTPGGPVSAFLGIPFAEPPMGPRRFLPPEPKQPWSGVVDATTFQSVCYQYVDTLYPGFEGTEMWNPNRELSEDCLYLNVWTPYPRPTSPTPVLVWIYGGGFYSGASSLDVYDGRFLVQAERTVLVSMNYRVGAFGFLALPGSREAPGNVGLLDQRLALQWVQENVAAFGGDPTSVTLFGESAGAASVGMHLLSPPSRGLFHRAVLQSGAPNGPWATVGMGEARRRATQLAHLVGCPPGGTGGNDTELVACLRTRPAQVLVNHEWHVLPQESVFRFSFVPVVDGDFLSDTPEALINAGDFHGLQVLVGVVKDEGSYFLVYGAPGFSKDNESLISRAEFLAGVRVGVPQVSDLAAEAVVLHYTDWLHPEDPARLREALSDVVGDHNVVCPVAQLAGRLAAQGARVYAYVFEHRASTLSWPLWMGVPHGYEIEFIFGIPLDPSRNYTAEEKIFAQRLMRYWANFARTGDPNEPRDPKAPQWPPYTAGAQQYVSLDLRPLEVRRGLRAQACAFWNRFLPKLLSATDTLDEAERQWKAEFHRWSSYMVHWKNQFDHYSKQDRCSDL

The IC50 is the concentration needed to halve the response being measured. As for `O=C(Cc1ccccc1)N1CCCc2ncc3ccccc3c21` [1-(Phenylacetyl)-1,2,3,4-tetrahydrobenzo[c]-1,5-naphthyridine], the IC50 under setting [1] was 320 µM. As to `CN1CCN(C2=Nc3c(ncc4ccccc34)CC2)CC1` [3,4-Dihydro-2-(4-methyl-1-piperazinyl)benzo[c]-1,5-naphthyridine hemihydrate], the midpoint of inhibition, the IC50, lay at 840 µM. For `c1ccc2c3c(ncc2c1)CCCN3` [1,2,3,4-Tetrahydrobenzo[c]-1,5-naphthyridine], the IC50 under setting [1] turned out to be 61 µM.

Source of the values: patent publication US4670562A, “Dihydropyrrolo[1,2-b]isoquinolinedione oximes” (priority 1986, dated 1987).
